# Legend:
# Experiment in all cases: relative viability (nuclei count vs DMSO), 5 days (fraction); higher = more cells survive
# [1] = test system: NCI-H23
# Outline: (§1)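 Medians of duplicate plates are given as relative viability. That measure is the nuclei count in treated wells divided by the count in vehicle wells. Counts were taken on 4× images of lung cancer cell lines in 1536-well plates, 5 days after pin-tool dosing the day after seeding with one drug alone or a fixed anchor-drug dose plus five library-drug doses (not always all listed) in √10 steps.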
# [2] = test system: NCI-H650
# Outline: as §1
# [3] = test system: HCC-15
# Outline: as §1
# [4] = test system: HARA
# Outline: as §1
# [5] = test system: SK-MES-1
# Outline: as §1
# [6] = test system: NCI-H1975
# Outline: as §1
# [7] = test system: COR-L23
# Outline: as §1
# [8] = test system: BEN
# Outline: as §1
# [9] = test system: HCC-44
# Outline: as §1
# [10] = test system: 201T
# Outline: as §1
# [11] = test system: NCI-H1792
# Outline: as §1
# [12] = test system: A-427
# Outline: as §1
# [13] = test system: NCI-H838
# Outline: as §1
# [14] = test system: NCI-H1650
# Outline: as §1
# [15] = test system: NCI-H2342
# Outline: as §1
# [16] = test system: NCI-H441
# Outline: as §1
# [17] = test system: SW 900
# Outline: as §1
# [18] = test system: NCI-H1437
# Outline: as §1
# [19] = test system: EKVX
# Outline: as §1
# [20] = test system: NCI-H358
# Outline: as §1
# [21] = test system: HCC-827
# Outline: as §1
smiles,measurement,setting,value
Nc1ccn([C@@H]2O[C@H](CO)[C@@H](O)[C@@H]2O)c(=O)n1 [Cytarabine] + CC(=O)c1c(C)c2cnc(Nc3ccc(N4CCNCC4)cn3)nc2n(C2CCCC2)c1=O [Palbociclib] (partner 0.5 µM),relative viability,[1]; first compound 0.005 µM,0.617
same,relative viability,[1]; first compound 0.01581 µM,0.367
same,relative viability,[1]; first compound 0.05 µM,0.299
same,relative viability,[1]; first compound 0.1581 µM,0.193
same,relative viability,[1]; first compound 0.5 µM,0.169
same,relative viability,[2]; first compound 0.005 µM,0.238
same,relative viability,[2]; first compound 0.01581 µM,0.227
same,relative viability,[2]; first compound 0.05 µM,0.159
same,relative viability,[2]; first compound 0.1581 µM,0.157
same,relative viability,[2]; first compound 0.5 µM,0.175
same,relative viability,[3]; first compound 0.005 µM,0.743
same,relative viability,[3]; first compound 0.01581 µM,0.673
same,relative viability,[3]; first compound 0.05 µM,0.835
same,relative viability,[3]; first compound 0.1581 µM,0.671
same,relative viability,[3]; first compound 0.5 µM,0.514
same,relative viability,[4]; first compound 0.005 µM,0.291
same,relative viability,[4]; first compound 0.01581 µM,0.212
same,relative viability,[4]; first compound 0.05 µM,0.221
same,relative viability,[4]; first compound 0.1581 µM,0.158
same,relative viability,[4]; first compound 0.5 µM,0.163
same,relative viability,[5]; first compound 0.005 µM,0.297
same,relative viability,[5]; first compound 0.01581 µM,0.265
same,relative viability,[5]; first compound 0.05 µM,0.253
same,relative viability,[5]; first compound 0.1581 µM,0.246
same,relative viability,[5]; first compound 0.5 µM,0.223
same,relative viability,[6]; first compound 0.005 µM,0.453
same,relative viability,[6]; first compound 0.01581 µM,0.574
same,relative viability,[6]; first compound 0.05 µM,0.46
same,relative viability,[6]; first compound 0.1581 µM,0.283
same,relative viability,[6]; first compound 0.5 µM,0.212
same,relative viability,[7]; first compound 0.005 µM,0.203
same,relative viability,[7]; first compound 0.01581 µM,0.228
same,relative viability,[7]; first compound 0.05 µM,0.176
same,relative viability,[7]; first compound 0.1581 µM,0.115
same,relative viability,[7]; first compound 0.5 µM,0.122
same,relative viability,[8]; first compound 0.005 µM,0.481
same,relative viability,[8]; first compound 0.01581 µM,0.431
same,relative viability,[8]; first compound 0.05 µM,0.458
same,relative viability,[8]; first compound 0.1581 µM,0.377
same,relative viability,[8]; first compound 0.5 µM,0.286
same,relative viability,[9]; first compound 0.005 µM,0.997
same,relative viability,[9]; first compound 0.01581 µM,0.942
same,relative viability,[9]; first compound 0.05 µM,0.911
same,relative viability,[9]; first compound 0.1581 µM,0.806
same,relative viability,[9]; first compound 0.5 µM,0.812
same,relative viability,[10]; first compound 0.005 µM,0.369
same,relative viability,[10]; first compound 0.01581 µM,0.335
same,relative viability,[10]; first compound 0.05 µM,0.356
same,relative viability,[10]; first compound 0.1581 µM,0.271
same,relative viability,[10]; first compound 0.5 µM,0.31
same,relative viability,[11]; first compound 0.005 µM,0.853
same,relative viability,[11]; first compound 0.01581 µM,0.655
same,relative viability,[11]; first compound 0.05 µM,0.618
same,relative viability,[11]; first compound 0.1581 µM,0.508
same,relative viability,[11]; first compound 0.5 µM,0.468
same,relative viability,[12]; first compound 0.005 µM,0.437
same,relative viability,[12]; first compound 0.01581 µM,0.474
same,relative viability,[12]; first compound 0.05 µM,0.363
same,relative viability,[12]; first compound 0.1581 µM,0.281
same,relative viability,[12]; first compound 0.5 µM,0.273
same,relative viability,[13]; first compound 0.005 µM,0.228
same,relative viability,[13]; first compound 0.01581 µM,0.244
same,relative viability,[13]; first compound 0.05 µM,0.209
same,relative viability,[13]; first compound 0.1581 µM,0.2
same,relative viability,[13]; first compound 0.5 µM,0.149
same,relative viability,[14]; first compound 0.005 µM,0.317
same,relative viability,[14]; first compound 0.01581 µM,0.319
same,relative viability,[14]; first compound 0.05 µM,0.318
same,relative viability,[14]; first compound 0.1581 µM,0.163
same,relative viability,[14]; first compound 0.5 µM,0.186
same,relative viability,[15]; first compound 0.005 µM,0.525
same,relative viability,[15]; first compound 0.01581 µM,0.557
same,relative viability,[15]; first compound 0.05 µM,0.502
same,relative viability,[15]; first compound 0.1581 µM,0.467
same,relative viability,[15]; first compound 0.5 µM,0.435
same,relative viability,[16]; first compound 0.005 µM,0.198
same,relative viability,[16]; first compound 0.01581 µM,0.197
same,relative viability,[16]; first compound 0.05 µM,0.168
same,relative viability,[16]; first compound 0.1581 µM,0.139
same,relative viability,[16]; first compound 0.5 µM,0.17
same,relative viability,[17]; first compound 0.005 µM,0.536
same,relative viability,[17]; first compound 0.01581 µM,0.515
same,relative viability,[17]; first compound 0.05 µM,0.451
same,relative viability,[17]; first compound 0.1581 µM,0.362
same,relative viability,[17]; first compound 0.5 µM,0.292
same,relative viability,[18]; first compound 0.005 µM,0.284
same,relative viability,[18]; first compound 0.01581 µM,0.28
same,relative viability,[18]; first compound 0.05 µM,0.237
same,relative viability,[18]; first compound 0.1581 µM,0.192
same,relative viability,[18]; first compound 0.5 µM,0.196
same,relative viability,[19]; first compound 0.005 µM,0.366
same,relative viability,[19]; first compound 0.01581 µM,0.403
same,relative viability,[19]; first compound 0.05 µM,0.296
same,relative viability,[19]; first compound 0.5 µM,0.207
same,relative viability,[20]; first compound 0.005 µM,0.126
same,relative viability,[20]; first compound 0.01581 µM,0.115
same,relative viability,[20]; first compound 0.05 µM,0.0934
same,relative viability,[20]; first compound 0.1581 µM,0.0712
same,relative viability,[20]; first compound 0.5 µM,0.0692
same,relative viability,[21]; first compound 0.005 µM,0.347
same,relative viability,[21]; first compound 0.01581 µM,0.317
same,relative viability,[21]; first compound 0.05 µM,0.19
same,relative viability,[21]; first compound 0.1581 µM,0.173
same,relative viability,[21]; first compound 0.5 µM,0.14

# Reference: the supplement of paper PMC10307832
